Results reported in US20240228504A1, “SUBSTITUTED TRICYCLIC AMIDES, ANALOGUES THEREOF, AND METHODS USING SAME” (Arbutus Biopharma Corporation, priority 2020, published 2024).
Like-named read-outs stand apart in the source and are kept apart here.

Tested on: HBV rcDNA in HepDE19 cells
Test: HepDE19 assay with bDNA quantitation of HBV rcDNA
Type: cell-based, hepatitis B virus
Details: inhibition of rcDNA formation, bDNA quantitation, read-out: DE-19bDNA EC50
[1] = Hepatitis B virus, HepDE19, HepDE19 assay

Row | Compound | EC50 [1] [nM] | EC50 (HepDE19 assay) [nM]
1 | CN(C(=O)c1cnc(C(F)(F)F)c(Cl)c1)[C@@H]1COCc2[nH]c(=O)c3cc(F)ccc3c21 (single isomer, unassigned) [Compound 379, 5-Chloro-N-(8-fluoro-6-oxo-1,4,5,6-tetrahydro-2H-pyrano[3,4-c]isoquinolin-1-yl)-N-methyl-6-(trifluoromethyl)nicotinamide] | 170 | 
2 | CN(C(=O)c1cnc(C(F)(F)F)[nH]1)[C@@H]1COCc2[nH]c(=O)c3cc(F)c(F)cc3c21 [Compound 225, (S)-N-(8,9-Difluoro-6-oxo-1,4,5,6-tetrahydro-2H-pyrano[3,4-c]isoquinolin-1-yl)-N-methyl-2-(trifluoromethyl)-1H-imidazole-5-carboxamide] | 13000 | 
3 | CN(C(=O)c1cc(F)c(C(F)F)c(F)c1)C1CNCc2[nH]c(=O)c3cc(F)ccc3c21 (single isomer, unassigned) [Compound 186, 4-(Difluoromethyl)-3,5-difluoro-N-(8-fluoro-6-oxo-1,2,3,4,5,6-hexahydrobenzo[c][1,7]naphthyridin-1-yl)-N-methylbenzamide] |  | 200
4 | CN(C(=O)c1ccc2cncn2c1)[C@@H]1COCc2[nH]c(=O)c3cc(F)c(F)cc3c21 [Compound 299, (S)-N-(8,9-Difluoro-6-oxo-1,4,5,6-tetrahydro-2H-pyrano[3,4-c]isoquinolin-1-yl)-N-methylimidazo[1,5-a]pyridine-6-carboxamide] | 360 | 
5 | CN(C(=O)c1ccc2[nH]ncc2c1)C1CNCc2[nH]c(=O)c3cc(F)c(F)cc3c21 (single isomer, unassigned) [Compound 474, N-(8,9-difluoro-6-oxo-1,2,3,4,5,6-hexahydrobenzo[c][1,7]naphthyridin-1-yl)-N-methyl-1H-indazole-5-carboxamide] | 3800 | 
6 | CN(C(=O)c1cc(Br)c[nH]1)[C@@H]1COCc2[nH]c(=O)c3cc(F)c(F)cc3c21 [Compound 198, (S)-4-Bromo-N-(8,9-difluoro-6-oxo-1,4,5,6-tetrahydro-2H-pyrano[3,4-c]isoquinolin-1-yl)-N-methyl-1H-pyrrole-2-carboxamide] | 220 | 
7 | CN(C(=O)C1Cc2c(F)cc(F)cc2N1)C1COCc2[nH]c(=O)c3cc(F)c(F)cc3c21 (centres unmarked) [Compound 16, N-(8,9-Difluoro-6-oxo-1,4,5,6-tetrahydro-2H-pyrano[3,4-c]isoquinolin-1-yl)-4,6-difluoro-N-methylindoline-2-carboxamide] |  | 20
8 | CN(C(=O)c1cc2sc(F)cc2[nH]1)C1COCc2[nH]c(=O)c3cc(F)ccc3c21 (single isomer, unassigned) [Compound 498, 2-fluoro-N-(8-fluoro-6-oxo-1,4,5,6-tetrahydro-2H-pyrano[3,4-c]isoquinolin-1-yl)-N-methyl-4H-thieno[3,2-b]pyrrole-5-carboxamide] |  | 80
9 | CN(C(=O)c1cccc(-c2cccc(F)c2)c1)[C@@H]1COCc2[nH]c(=O)c3cc(F)c(F)cc3c21 [Compound 290, (S)-N-(8,9-Difluoro-6-oxo-1,4,5,6-tetrahydro-2H-pyrano[3,4-c]isoquinolin-1-yl)-3′-fluoro-N-methyl-[1,1′-biphenyl]-3-carboxamide] | 2300 | 
10 | CN(C(=O)c1cccc(NS(C)(=O)=O)c1)[C@@H]1COCc2[nH]c(=O)c3cc(F)c(F)cc3c21 [Compound 297, (S)-N-(8,9-Difluoro-6-oxo-1,4,5,6-tetrahydro-2H-pyrano[3,4-c]isoquinolin-1-yl)-N-methyl-3-(methylsulfonamido)benzamide] | 21000 | 
11 | CN(C(=O)[C@@H](O)c1ccccc1)[C@@H]1COCc2[nH]c(=O)c3cc(F)c(F)cc3c21 [Compound 95, (S)-N-((S)-8,9-Difluoro-6-oxo-1,4,5,6-tetrahydro-2H-pyrano[3,4-c]isoquinolin-1-yl)-2-hydroxy-N-methyl-2-phenylacetamide] | 24000 | 
12 | CN(C(=O)c1cc2c(F)c(F)ccc2[nH]1)C1COCc2[nH]c(=O)c3cc(F)ccc3c21 (single isomer, unassigned) [Compound 37, 4,5-Difluoro-N-(8-fluoro-6-oxo-1,4,5,6-tetrahydro-2H-pyrano[3,4-c]isoquinolin-1-yl)-N-methyl-1H-indole-2-carboxamide] |  | 700
13 | CN(C(=O)c1cc2cc(F)c(F)cc2[nH]1)[C@@H]1COC(=O)c2[nH]c(=O)c3cc(F)c(F)cc3c21 [Compound 321, (S)-N-(8,9-Difluoro-4,6-dioxo-1,4,5,6-tetrahydro-2H-pyrano[3,4-c]isoquinolin-1-yl)-5,6-difluoro-N-methyl-1H-indole-2-carboxamide] | 10 | 
14 | CN(C(=O)c1cc2c(C(F)F)c(F)ccc2[nH]1)C1CNCc2[nH]c(=O)c3cc(F)ccc3c21 (single isomer, unassigned) [Compound 272, 4-(Difluoromethyl)-5-fluoro-N-(8-fluoro-6-oxo-1,2,3,4,5,6-hexahydrobenzo[c][1,7]naphthyridin-1-yl)-N-methyl-1H-indole-2-carboxamide] |  | 70
15 | CN(C(=O)c1cc2sc(C#N)cc2[nH]1)[C@@H]1COCc2[nH]c(=O)c3cc(F)c(F)cc3c21 [Compound 468] | 5 | 
16 | CN(C(=O)c1ccc(Cl)c(Cl)c1)[C@@H]1COCc2[nH]c(=O)c3cc(F)c(F)cc3c21 [Compound 361, (S)-3,4-Dichloro-N-(8,9-difluoro-6-oxo-1,4,5,6-tetrahydro-2H-pyrano[3,4-c]isoquinolin-1-yl)-N-methylbenzamide] | 10 | 
17 | Cc1cc(F)cc2[nH]c(C(=O)N(C)C3COCc4[nH]c(=O)c5cc(F)ccc5c43)cc12 (racemic) [Compound 455, 6-Fluoro-N-(8-fluoro-6-oxo-1,4,5,6-tetrahydro-2H-pyrano[3,4-c]isoquinolin-1-yl)-N,4-dimethyl-1H-indole-2-carboxamide] | 20 | 
18 | CN(C(=O)c1cc2cc(C#N)ccc2[nH]1)C1CNCc2[nH]c(=O)c3cc(F)c(F)cc3c21 (single isomer, unassigned) [Compound 406, 5-Cyano-N-(8,9-difluoro-6-oxo-1,2,3,4,5,6-hexahydrobenzo[c][1,7]naphthyridin-1-yl)-N-methyl-1H-indole-2-carboxamide] | 190 | 
19 | CN(C(=O)c1cc2c(F)cccn2c1)C1CS(=O)(=O)Cc2[nH]c(=O)c3cc(F)c(F)cc3c21 (single isomer, unassigned) [Compound 151, N-(8,9-Difluoro-3,3-dioxido-6-oxo-2,4,5,6-tetrahydro-1H-thiopyrano[3,4-c]isoquinolin-1-yl)-8-fluoro-N-methylindolizine-2-carboxamide] |  | 3610
20 | CN(C(=O)c1cc2sc(Cl)cc2[nH]1)[C@@H]1COC(=O)c2[nH]c(=O)c3cc(F)c(F)cc3c21 [Compound 477, (S)-2-Chloro-N-(8,9-difluoro-4,6-dioxo-1,4,5,6-tetrahydro-2H-pyrano[3,4-c]isoquinolin-1-yl)-N-methyl-4H-thieno[3,2-b]pyrrole-5-carboxamide] | 20 | 
21 | CN(C(=O)c1ccc(C(F)F)c(F)c1)[C@@H]1COCc2[nH]c(=O)c3cc(F)c(F)cc3c21 [Compound 110, (S)-N-(8,9-Difluoro-6-oxo-1,4,5,6-tetrahydro-2H-pyrano[3,4-c]isoquinolin-1-yl)-4-(difluoromethyl)-3-fluoro-N-methylbenzamide] | 10 | 
22 | CN(C(=O)c1cc2cc(F)c(F)cc2n1COP(=O)(OC(C)(C)C)OC(C)(C)C)[C@@H]1COCc2[nH]c(=O)c3cc(F)c(F)cc3c21 [Compound 376, (S)-di-tert-Butyl ((2-((8,9-difluoro-6-oxo-1,4,5,6-tetrahydro-2H-pyrano[3,4-c]isoquinolin-1-yl)(methyl)carbamoyl)-5,6-difluoro-1H-indol-1-yl)methyl)phosphate] | 10 | 
23 | CN(C(=O)c1nc2ccccc2o1)[C@@H]1COCc2[nH]c(=O)c3cc(F)c(F)cc3c21 [Compound 124, (S)-N-(8,9-Difluoro-6-oxo-1,4,5,6-tetrahydro-2H-pyrano[3,4-c]isoquinolin-1-yl)-N-methylbenzo[d]oxazole-2-carboxamide] | 1100 | 
24 | CN(C(=O)c1cccc(Oc2ccccc2)c1)[C@@H]1COCc2[nH]c(=O)c3cc(F)c(F)cc3c21 [Compound 292, (S)-N-(8,9-Difluoro-6-oxo-1,4,5,6-tetrahydro-2H-pyrano[3,4-c]isoquinolin-1-yl)-N-methyl-3-phenoxybenzamide] | 11200 | 
25 | CN(C(=O)c1cc2c(C(F)F)cc(F)cc2[nH]1)C1COCc2[nH]c(=O)c3cc(F)ccc3c21 (single isomer, unassigned) [Compound 239, 4-(Difluoromethyl)-6-fluoro-N-(8-fluoro-6-oxo-1,4,5,6-tetrahydro-2H-pyrano[3,4-c]isoquinolin-1-yl)-N-methyl-1H-indole-2-carboxamide] |  | 10
26 | CN(C(=O)c1ccc2nccn2c1)[C@@H]1COCc2[nH]c(=O)c3cc(F)c(F)cc3c21 [Compound 306, (S)-N-(8,9-Difluoro-6-oxo-1,4,5,6-tetrahydro-2H-pyrano[3,4-c]isoquinolin-1-yl)-N-methylimidazo[1,2-a]pyridine-6-carboxamide] | 420 | 
27 | CN(C(=O)c1csc(Cl)c1)[C@@H]1COCc2[nH]c(=O)c3cc(F)c(F)cc3c21 [Compound 140, (S)-5-Chloro-N-(8,9-difluoro-6-oxo-1,4,5,6-tetrahydro-2H-pyrano[3,4-c]isoquinolin-1-yl)-N-methylthiophene-3-carboxamide] | 100 | 
28 | CN(C(=O)c1cc2cnccc2[nH]1)[C@@H]1COCc2[nH]c(=O)c3cc(F)c(F)cc3c21 [Compound 308, (S)-N-(8,9-Difluoro-6-oxo-1,4,5,6-tetrahydro-2H-pyrano[3,4-c]isoquinolin-1-yl)-N-methyl-1H-pyrrolo[3,2-c]pyridine-2-carboxamide] | 610 | 
29 | CCn1nc(Cl)c2cc(C(=O)N(C)[C@@H]3COCc4[nH]c(=O)c5cc(F)c(F)cc5c43)ccc21 [Compound 416, (S)-3-Chloro-N-(8,9-difluoro-6-oxo-1,4,5,6-tetrahydro-2H-pyrano[3,4-c]isoquinolin-1-yl)-1-ethyl-N-methyl-1H-indazole-5-carboxamide] | 80 | 
